In the METLIN SMRT retention time set (Domingo-Almenara et al. 2019):

Assay: gradient 5% acetonitrile 3 min, to 50% in 2 min, to 85% in 15 min, held 3 min, 100 µL/min
Conditions: column: Zorbax Extend-C18 2.1 x 50 mm; eluents: water / acetonitrile, 0.1% formic acid
Method in brief: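 Standards, all pure, were combined into mixtures of ~100 molecules and run at 100 μL/min on a Zorbax Extend-C18 column (2.1 × 50 mm, 1.8 μm) with water and acetonitrile, each containing 0.1% formic acid. A coupled quadrupole time-of-flight mass spectrometer operated in positive and negative ionization mode. Retention time values come from computationally picked adduct peaks, each inspected manually.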

RP-LC retention time	SMILES
1100 s	CSc1ccc(-c2noc(Cc3nnc(-c4cc(F)cc(F)c4)o3)n2)cc1
794 s	CCc1noc(NC(C)=O)c1-c1ccc(C)c(S(=O)(=O)Nc2ccc(OC)cc2OC)c1
600 s	CN(C)CCNC(=O)c1ncn2c1C(=O)N(C1CC1)C(C)(C(=O)NCc1ccc(F)cc1)C2 (stereo not drawn)
829 s	COc1cc(OC)cc(C(=O)Nc2ccc(N3CCN(C4CCCC4)C3=O)nc2)c1
941 s	Cc1cc2nn(CC(=O)N3CCC(C)CC3)c(=O)n2c(Nc2ccc(C)c(C)c2)n1
978 s	CCn1c(=O)sc2cc(S(=O)(=O)N3CCC(C(=O)NCc4ccc(OC)cc4)CC3)ccc21
881 s	O=C([C@@H]1C[C@H](F)CN1S(=O)(=O)Cc1ccc(Cl)cc1)N1CCCCC1
559 s	Cc1cnc(C2CC2)n1C1CCN(Cc2ccc(F)cc2F)C1 (stereo not drawn)
680 s	COCC1CN(C(=O)c2ccc3cc[nH]c3c2)CC12CCOCC2 (stereo not drawn)
784 s	Cc1ccc(CNC(=O)Nc2cccc(-c3ccc(N4CCC(C)CC4)nn3)c2)cc1
1200 s	COc1ccc2cccc(NC(=O)c3ccc(F)c(F)c3)c2n1
1050 s	Cn1nc(-c2nc(-c3ccccc3)no2)c2c1CCN(C(=O)Nc1cccc(Cl)c1)C2
1020 s	CC1CCC(NC(=O)C2CCN(S(=O)(=O)c3ccc4c(c3)sc(=O)n4C(C)C)CC2)CC1 (stereo not drawn)
848 s	Cc1ccc(C)c(NS(=O)(=O)c2cc3n(c2)CCN(CC(C)C)C3=O)c1
898 s	CN1C(=O)COc2ccc(-c3csc(NC(=O)Cc4ccccc4)n3)cc21
1240 s	COc1ccc(-c2csc(Cc3nc(-c4ccc(C)cc4)no3)n2)cc1
997 s	CC(=O)c1cccc(NC(=O)c2csc3c2CCC(C)C3)c1 (stereo not drawn)
997 s	CCOc1ccc(-c2c(C#N)c(N)nc(SCC(=O)OCc3ccccc3)c2C#N)cc1
826 s	O=C(Cn1ccc2ccccc21)NCc1c(F)cccc1F
665 s	COc1ccccc1CNC(=O)c1cn2ccccc2n1
846 s	COc1ccc(C(=O)NCCC2=CCCCC2)cc1
1100 s	O=C1CC(c2noc(-c3ccc(F)cc3)n2)CN1c1ccc(F)c(Cl)c1 (stereo not drawn)
1200 s	CCOc1nc2ccccc2nc1N1CCCC(C(=O)Nc2cccc(F)c2)C1 (stereo not drawn)
857 s	CCC1CCCCN1S(=O)(=O)c1cc(-c2nnc(C)o2)co1 (stereo not drawn)
941 s	CCc1nc2c(NC(=O)c3ccc(Cl)s3)cccn2n1
970 s	Cc1ccc(S(=O)(=O)N2CCC(c3nc(-c4ccccn4)no3)CC2)cc1C
768 s	CCC(=O)N1CCc2cc(N3CC(C(=O)Nc4cc(C)ccc4F)CC3=O)ccc21 (stereo not drawn)
638 s	O=C(Nc1ccccc1)c1nnc(CCCC(=O)N2CCN(c3ccccn3)CC2)s1

Continued, compound first:

SMILES	RP-LC retention time
Cc1ccc(CNC(=O)c2cccc(-c3nc4cccnc4n3C)c2)o1	722 s
CC(C)n1cnc2cc(CNC(=O)c3ccccc3Cl)ccc21	597 s
CC(C)CCNC(=O)C1CCCN(c2ncnc3c2oc2ccccc23)C1 (stereo not drawn)	786 s
Cc1ccc(Cn2c(=O)c(N3CCN(C(=O)NCC4CCCO4)CC3)nc3cccnc32)cc1 (stereo not drawn)	935 s
CCN1CCc2nc(NC(=O)C3CCN(S(=O)(=O)c4cccs4)CC3)sc2C1	634 s
CCC[C@@H]1C[C@@H](C(=O)N[C@@H]([C@H]2O[C@H](SC)[C@H](O)[C@@H](O)[C@@H]2O)[C@@H](C)O)N(C)C1	595 s
COc1cccc(S(=O)(=O)N2CCc3nc[nH]c3C2)c1	602 s
Cc1cc(C)n(CC(=O)NC(C)c2ccccc2)c1-c1nc(C2CC2)no1 (stereo not drawn)	914 s
CC(C)N(CCC(=O)c1ccc2ccccc2c1)Cc1ccccc1	859 s
CN(CC1CCCO1)C1CCN(C(=O)C2CCN(c3ccc(-c4cccs4)nn3)CC2)CC1 (stereo not drawn)	567 s
CCc1nc(-c2csc(S(=O)(=O)N3CCCC(C(=O)NC4CCC(C)CC4)C3)c2)no1 (stereo not drawn)	1100 s
COc1ccccc1-c1noc(Cn2ccn3nc(-c4ccc(Cl)cc4)cc3c2=O)n1	1040 s
CN1C(=O)COc2ccc(-c3csc(NC(=O)c4ccccc4)n3)cc21	926 s
COc1ccc(Nc2ncc(C(=O)O)c3ccccc23)cc1	599 s
Cc1ccc(-c2ncc(NC(=O)C(C)(C)C)cn2)cc1	968 s
O=C(Cc1cccc(F)c1)N1CCC2(C1)C(=O)Nc1ccccc12 (stereo not drawn)	713 s
CCOc1ccc(S(=O)(=O)NC2CCN(c3ccc(=O)[nH]n3)C2)cc1 (stereo not drawn)	671 s
CC(C)CC(=O)NCCc1csc(-c2ccc(Cl)cc2)n1	881 s
CN(C)S(=O)(=O)c1ccc2c(c1)N(CC(=O)NCCN1CCCC1)C(=O)C1CCCCN21 (stereo not drawn)	627 s
O=C(Nc1c(-c2ccccc2)nc2ccccn12)c1cccc([N+](=O)[O-])c1	596 s

SMILES	RP-LC retention time
O=C1NC2(CCN(C(=O)c3ccccc3)CC2)N=C1c1ccc(Cl)cc1	842 s
CCc1ccc(-c2cc3c(=O)n(Cc4noc(CN5CCN(C)CC5)n4)ccn3n2)cc1	647 s
CCNC(=O)C1CCCN(c2nc3ncn(CC(=O)NCCC4=CCCCC4)c(=O)c3s2)C1 (stereo not drawn)	692 s
COc1ccc(-c2cc3c4nnc(CCC(=O)NCc5ccco5)n4ccn3n2)cc1	665 s
CC1CCCN(c2ccn3c(=O)n(CC(=O)NCc4ccc(Cl)cc4)nc3n2)C1 (stereo not drawn)	821 s
O=C(c1ccc(F)cc1Cl)N1CCN(C(=O)c2nnn3c2COC(c2ccccc2)C3)CC1 (stereo not drawn)	887 s
Cc1cccc(-c2nc3nc(C)cc(N(CCO)Cc4ccccc4)n3n2)c1	815 s
Cc1ccc(NC(=O)N2CCC3(C2)C(=O)N(C)c2ccccc23)cc1 (stereo not drawn)	814 s
CCOc1ccc(CN2C[C@@H](COC)[C@H](c3ccncc3)C2)cc1OC	560 s
Cc1ccc(S(=O)(=O)c2cnc3ccc(F)cc3c2N2CCOCC2)cc1C	892 s
Cc1cc(C)c(S(=O)(=O)Nc2ccc3nc(N4CCN(C)CC4)cc(C(=O)O)c3c2)cc1C	611 s
Cc1ccc(-c2csc(NC(=O)COc3cc(C)ccc3C(C)C)n2)cc1	992 s
Cc1ccccc1-c1nc(Cn2ccnc2C)no1	555 s
O=S(=O)(c1cccc2nsnc12)N1CCc2nc(-c3ccccc3)ncc2C1	1000 s
C[C@@H](NC(=O)c1cc(C(=O)N[C@@H](Cc2ccccc2)[C@H](O)CNC2CC2)cc(N(C)S(C)(=O)=O)c1)c1ccccc1	705 s
Cc1cnc(C2CC2)n1C1CCN(S(=O)(=O)c2ccc(C#N)cc2)C1 (stereo not drawn)	647 s
COc1ccc(-c2nc3cnc(Br)cn3c2Nc2ccc3c(c2)OCCO3)cc1	900 s
O=C(Nc1ccccc1)c1ccc(N2CCC(NCc3ccc(F)c(F)c3)C2)nc1 (stereo not drawn)	568 s
COc1c(C(=O)N2CCN(c3ccccc3)CC2)sc2cccc(F)c12	1090 s
Cc1cccc(-c2ocnc2C(=O)NC2CCN(C)CC2)c1	618 s

SMILES	RP-LC retention time
O=C(Nc1ccc(F)cc1F)C1CCCN(c2ncnc3c2nc2n3CCCCC2)C1 (stereo not drawn)	824 s
CN(c1cccc(C(F)(F)F)c1)S(=O)(=O)c1cc2n(c1)CCCNC2=O	759 s
O=C(Cc1ccccc1)NC1CCN(c2cc(-c3cccs3)[nH]n2)C1 (stereo not drawn)	741 s
Cc1c(C(=O)N2CCCCC2C)sc2ncn(CC(=O)N3CC(C)CC(C)C3)c(=O)c12 (stereo not drawn)	846 s
COc1ccc(/C=C/C(=O)c2ccc(OC)cc2OC)cc1	1100 s
COc1ccc(S(=O)(=O)NCc2c(-c3ccccc3)nc3sc(C)nn23)cc1	832 s
Cc1ccccc1Nc1c(-c2cc(Br)ccc2F)nc2c(C)cccn12	843 s
Cc1cc(C(=O)N2CCN(C(=O)C3CC3c3cccs3)CC2)c(C)o1 (stereo not drawn)	767 s
Cc1ccc(C)c(N2CCN(C(=O)c3[nH]c(C)c(S(=O)(=O)N4CCCC4)c3C)CC2)c1	1020 s
O=c1ccc(-c2ccc(Cl)cc2)nn1CCCNS(=O)(=O)Cc1ccccc1	579 s
COc1ccc(NC(=O)c2sc(-c3cn(C(C)C)c4ncccc34)nc2C)c(OC)c1	1030 s
COc1cccc(CC(=O)N2CCC3(CC2)NC(=O)c2cc(F)ccc2N3C)c1	758 s
CNc1nccc(N2CCC(CC(=O)O)CC2)n1	576 s
O=C(c1ccccc1)N1CCN(c2cc(-c3cccs3)[nH]n2)CC1	754 s
COc1ccc(C(CNC(=O)c2cc(=O)c3ccccc3o2)N(C)C)cc1 (stereo not drawn)	607 s
O=C(C1CCCN(c2nc3cccnc3s2)C1)N1CCN(c2cccc(Cl)c2)CC1 (stereo not drawn)	1010 s
CCc1ccc(NC(=O)Nc2cccc(-c3nnc4n3CCCC4)c2)cc1	736 s
COc1ccc(-c2[nH]ncc2CN2C[C@@H]3CCN(S(C)(=O)=O)C[C@]3(CF)C2)cc1	590 s
CCOC(=O)COc1cc(-c2ccc(C)cc2)nc2ccc(NC(=O)c3cccs3)cc12	830 s
COc1ccc(NC(=O)N2CCN(CCn3c(C(F)(F)F)nc4cccnc43)CC2)cc1OC	611 s
